Data from US11691962B2 (eXIthera Pharmaceuticals, Inc., priority 2018, dated 2023).

Target: Factor XIa (Homo sapiens (Human), UniProt P03951)
Assay: Factor XIa enzyme inhibition assay (dose response, fluorogenic AMC substrate)
Type: biochemical
Settings: read-out: hFXIa IC50
Procedure, shortened: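 Fluorogenic progress curves (30 min, 1-min reads, 30° C) were recorded for 0.25 nM FXIa cleaving 50 μM Glp-Pro-Arg-AMC in Hepes pH 7.4 buffer with NaCl and Tween 20. Compounds were serially two-fold diluted, and IC50 was fitted with a Hill equation.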

Chain of Factor XIa (P03951 388-625): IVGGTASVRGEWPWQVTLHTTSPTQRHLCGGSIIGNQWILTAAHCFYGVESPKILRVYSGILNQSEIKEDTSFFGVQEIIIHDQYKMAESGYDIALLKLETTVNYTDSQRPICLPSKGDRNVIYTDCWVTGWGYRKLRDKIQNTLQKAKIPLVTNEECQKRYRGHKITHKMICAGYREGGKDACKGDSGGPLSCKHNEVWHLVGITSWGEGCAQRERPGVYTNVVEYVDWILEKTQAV
Chain of Factor XIa (P03951 19-387 partner): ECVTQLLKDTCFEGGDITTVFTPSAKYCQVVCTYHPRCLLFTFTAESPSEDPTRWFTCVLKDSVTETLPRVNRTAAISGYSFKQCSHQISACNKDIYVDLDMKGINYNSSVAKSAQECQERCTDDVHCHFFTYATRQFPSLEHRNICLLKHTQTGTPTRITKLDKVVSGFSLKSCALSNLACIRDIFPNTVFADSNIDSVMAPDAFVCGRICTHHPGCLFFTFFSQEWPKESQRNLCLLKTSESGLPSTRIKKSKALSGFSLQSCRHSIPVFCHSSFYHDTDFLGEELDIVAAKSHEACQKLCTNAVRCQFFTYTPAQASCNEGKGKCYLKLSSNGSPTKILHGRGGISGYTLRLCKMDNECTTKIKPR

SMILES | IC50
CC[C@H](NC(=O)N1C(=O)[C@H](Cc2ccnc(N)c2)[C@H]1C(=O)N(C)c1nccn1C)c1cccc(F)c1 [Compound 1-220, (2S,3R)-3-((2-aminopyridin-4-yl)methyl)-N2-(1-methyl-1H-imidazol-2-yl)-N1-((S)-1-(3-fluorophenyl)propyl)-N2-methyl-4-oxoazetidine-1,2-dicarboxamide] | 10 to 100 nM
CC[C@@H](NC(=O)N1C(=O)[C@H](Cc2cc(C)nc(N)c2)[C@H]1C(=O)N(C)c1cnn(C)c1)c1cccc(F)c1F [Compound 1-174, (2S,3R)-3-((2-amino-6-methylpyridin-4-yl)methyl)-N2-(1-methyl-1H-pyrazol-4-yl)-N1-((R)-1-(2,3-difluorophenyl)propyl)-N2-methyl-4-oxoazetidine-1,2-dicarboxamide] | 10 to 100 nM
CC[C@@H](NC(=O)N1C(=O)[C@H](Cc2cc(C)nc(N)c2)[C@H]1C(=O)N(C)c1ccnn1C)c1ccc(F)c(C)c1 [Compound 1-153, (2S,3R)-3-((2-amino-6-methylpyridin-4-yl)methyl)-N2-(1-methyl-1H-pyrazol-5-yl)-N1-((R)-1-(4-fluoro-3-methylphenyl)propyl)-N2-methyl-4-oxoazetidine-1,2-dicarboxamide] | < 10 nM
CC[C@@H](NC(=O)N1C(=O)[C@H](Cc2cc(C)nc(N)c2)[C@H]1C(=O)N(C)c1cnn(C)c1)c1cccc(C)c1C [Compound 1-173, (2S,3R)-3-((2-amino-6-methylpyridin-4-yl)methyl)-N2-(1-methyl-1H-pyrazol-4-yl)-N1-((R)-1-(2,3-dimethylphenyl)propyl)-N2-methyl-4-oxoazetidine-1,2-dicarboxamide] | 10 to 100 nM
CC[C@@H](NC(=O)N1C(=O)[C@H](Cc2ccnc(N)c2)[C@H]1C(=O)N(C)c1ccsn1)c1ccccc1 [Compound 1-21, (2S,3R)-3-((2-aminopyridin-4-yl)methyl)-N2-(3-isothiazolyl)-N1-((R)-1-phenylpropyl)-N2-methyl-4-oxoazetidine-1,2-dicarboxamide] | 10 to 100 nM
CC[C@H](c1cccc(Cl)c1)N(C)C(=O)N1C(=O)[C@H](Cc2ccnc(N)c2)[C@H]1C(=O)N(C)c1ccn(C)n1 [Compound 1-7, (2S,3R)-3-((2-aminopyridin-4-yl)methyl)-N2-(1-methyl-1H-pyrazol-3-yl)-N1-((R)-1-(3-chlorophenyl)propyl)-N1-methyl-N2-methyl-4-oxoazetidine-1,2-dicarboxamide] | 10 to 100 nM
CC[C@@H](NC(=O)N1C(=O)[C@H](Cc2ccnc(N)c2)[C@H]1C(=O)N(C)c1ccn(C)n1)c1cc(C)ccc1C [Compound 1-132, (2S,3R)-3-((2-aminopyridin-4-yl)methyl)-N2-(1-methyl-1H-pyrazol-3-yl)-N1-((R)-1-(2,5-dimethylphenyl)propyl)-N2-methyl-4-oxoazetidine-1,2-dicarboxamide] | < 10 nM
CC[C@@H](NC(=O)N1C(=O)[C@H](Cc2ccnc(N)c2)[C@H]1C(=O)N(C)c1nccn1C)c1cc(C)c(F)c(C)c1 [Compound 1-195, (2S,3R)-3-((2-aminopyridin-4-yl)methyl)-N2-(1-methyl-1H-imidazol-2-yl)-N1-((R)-1-(3,5-dimethyl-4-fluorophenyl)propyl)-N2-methyl-4-oxoazetidine-1,2-dicarboxamide] | < 10 nM
CC[C@@H](NC(=O)N1C(=O)[C@H](Cc2ccnc(N)c2)[C@H]1C(=O)N(C)c1nnco1)c1ccccc1 [Compound 1-167, (2S,3R)-3-((2-aminopyridin-4-yl)methyl)-N2-(1,3,4-oxadiazol-2-yl)-N1-((R)-1-phenylpropyl)-N2-methyl-4-oxoazetidine-1,2-dicarboxamide] | < 10 nM
CC[C@@H](NC(=O)N1C(=O)[C@H](Cc2cc(C)nc(N)c2)[C@H]1C(=O)N(C)c1cnn(C)c1)c1ccc(F)cc1 [Compound 1-169, (2S,3R)-3-((2-amino-6-methylpyridin-4-yl)methyl)-N2-(1-methyl-1H-pyrazol-4-yl)-N1-((R)-1-(4-fluorophenyl)propyl)-N2-methyl-4-oxoazetidine-1,2-dicarboxamide] | 10 to 100 nM
CC[C@@H](NC(=O)N1C(=O)[C@H](Cc2ccnc(N)c2)[C@H]1C(=O)N(C)c1ccn(C)n1)c1cc(Cl)ccc1C [Compound 1-141, (2S,3R)-3-((2-aminopyridin-4-yl)methyl)-N2-(1-methyl-1H-pyrazol-3-yl)-N1-((R)-1-(5-chloro-2-methylphenyl)propyl)-N2-methyl-4-oxoazetidine-1,2-dicarboxamide] | < 10 nM
CC[C@@H](NC(=O)N1C(=O)[C@H](Cc2cc(C)nc(N)c2)[C@H]1C(=O)N(C)c1ccnn1C)c1cc(C)ccc1F [Compound 1-164, (2S,3R)-3-((2-amino-6-methylpyridin-4-yl)methyl)-N2-(1-methyl-1H-pyrazol-5-yl)-N1-((R)-1-(2-fluoro-5-methylphenyl)propyl)-N2-methyl-4-oxoazetidine-1,2-dicarboxamide] | < 10 nM
CC[C@@H](NC(=O)N1C(=O)[C@H](Cc2ccnc(N)c2)[C@H]1C(=O)N(C)c1nccn1C)c1ccc(C)nc1C [Compound 1-95, (2S,3R)-3-((2-aminopyridin-4-yl)methyl)-N2-(1-methyl-1H-imidazol-2-yl)-N1-((R)-1-(2,6-dimethylpyridin-3-yl)propyl)-N2-methyl-4-oxoazetidine-1,2-dicarboxamide] | 10 to 100 nM
CC[C@@H](NC(=O)N1C(=O)[C@H](Cc2ccnc(N)c2)[C@H]1C(=O)N(C)c1ccn(C)n1)c1cc(C)c(F)c(C)c1 [Compound 1-203, (2S,3R)-3-((2-aminopyridin-4-yl)methyl)-N2-(1-methyl-1H-pyrazol-3-yl)-N1-((R)-1-(3,5-dimethyl-4-fluorophenyl)propyl)-N2-methyl-4-oxoazetidine-1,2-dicarboxamide] | < 10 nM
CC[C@@H](NC(=O)N1C(=O)[C@H](Cc2cc(C)nc(N)c2)[C@H]1C(=O)N(C)c1cnn(C)c1)c1ccc(F)c(C)c1 [Compound 1-171, (2S,3R)-3-((2-amino-6-methylpyridin-4-yl)methyl)-N2-(1-methyl-1H-pyrazol-4-yl)-N1-((R)-1-(4-fluoro-3-methylphenyl)propyl)-N2-methyl-4-oxoazetidine-1,2-dicarboxamide] | 10 to 100 nM
CC[C@@H](NC(=O)N1C(=O)[C@H](Cc2cc(C)nc(N)c2)[C@H]1C(=O)N(C)c1cn(C)cn1)C1CCCCC1 [Compound 1-76, (2S,3R)-3-((2-amino-6-methylpyridin-4-yl)methyl)-N2-(1-methyl-1H-imidazol-4-yl)-N1-((R)-1-cyclohexylpropyl)-N2-methyl-4-oxoazetidine-1,2-dicarboxamide] | 10 to 100 nM
Cc1cc(C[C@H]2C(=O)N(C(=O)NC(C3CCCCC3)C(F)(F)F)[C@@H]2C(=O)N(C)c2nccn2C)cc(N)n1 (stereo in doubt) [Compound 1-77, (2S,3R)-3-((2-amino-6-methylpyridin-4-yl)methyl)-N2-(1-methyl-1H-imidazol-2-yl)-N1-((R)-1-cyclohexyl-2,2,2-trifluoroethyl)-N2-methyl-4-oxoazetidine-1,2-dicarboxamide] | 10 to 100 nM
CC[C@@H](NC(=O)N1C(=O)[C@H](Cc2ccnc(N)c2)[C@H]1C(=O)N(C)c1ccnn1C)c1cc(F)ccc1C [Compound 1-219, (2S,3R)-3-((2-aminopyridin-4-yl)methyl)-N2-(1-methyl-1H-pyrazol-5-yl)-N1-((R)-1-(5-fluoro-2-methylphenyl)propyl)-N2-methyl-4-oxoazetidine-1,2-dicarboxamide] | < 10 nM
CC[C@@H](NC(=O)N1C(=O)[C@H](Cc2cc(C)nc(N)c2)[C@H]1C(=O)N(C)c1cnn(C)c1)c1cccc(F)c1C [Compound 1-191, (2S,3R)-3-((2-amino-6-methylpyridin-4-yl)methyl)-N2-(1-methyl-1H-pyrazol-4-yl)-N1-((R)-1-(3-fluoro-2-methylphenyl)propyl)-N2-methyl-4-oxoazetidine-1,2-dicarboxamide] | 10 to 100 nM
CC[C@@H](NC(=O)N1C(=O)[C@H](Cc2cc(C)nc(N)c2)[C@H]1C(=O)N(C)c1cnn(C)c1)c1cccc(C)c1F [Compound 1-190, (2S,3R)-3-((2-amino-6-methylpyridin-4-yl)methyl)-N2-(1-methyl-1H-pyrazol-4-yl)-N1-((R)-1-(2-fluoro-3-methylphenyl)propyl)-N2-methyl-4-oxoazetidine-1,2-dicarboxamide] | < 10 nM
CC[C@@H](NC(=O)N1C(=O)[C@H](Cc2ccnc(N)c2)[C@H]1C(=O)N(C)c1nccn1C)c1ccc(C)c(C)c1C [Compound 1-209, (2S,3R)-3-((2-aminopyridin-4-yl)methyl)-N2-(1-methyl-1H-imidazol-2-yl)-N1-((R)-1-(2,3,4-trimethylphenyl)propyl)-N2-methyl-4-oxoazetidine-1,2-dicarboxamide] | < 10 nM
CC[C@@H](NC(=O)N1C(=O)[C@H](Cc2ccnc(N)c2)[C@H]1C(=O)N(C)c1nccn1C)c1ccc(F)c(F)c1F [Compound 1-210, (2S,3R)-3-((2-aminopyridin-4-yl)methyl)-N2-(1-methyl-1H-imidazol-2-yl)-N1-((R)-1-(2,3,4-trifluorophenyl)propyl)-N2-methyl-4-oxoazetidine-1,2-dicarboxamide] | < 10 nM
CC[C@H](c1cccc(Cl)c1)N(C)C(=O)N1C(=O)[C@H](Cc2ccnc(N)c2)[C@H]1C(=O)N(C)c1ccnn1C [Compound 1-60, (2S,3R)-3-((2-aminopyridin-4-yl)methyl)-N2-(1-methyl-1H-pyrazol-5-yl)-N1-((R)-1-(3-chlorophenyl)propyl)-N1-methyl-N2-methyl-4-oxoazetidine-1,2-dicarboxamide] | 10 to 100 nM
CC[C@@H](NC(=O)N1C(=O)[C@H](Cc2ccnc(N)c2)[C@H]1C(=O)N(C)c1nccn1C)c1ccc(Cl)cc1C [Compound 1-118, (2S,3R)-3-((2-aminopyridin-4-yl)methyl)-N2-(1-methyl-1H-imidazol-2-yl)-N1-((R)-1-(4-chloro-2-methylphenyl)propyl)-N2-methyl-4-oxoazetidine-1,2-dicarboxamide] | < 10 nM
